The target of assay [1] is Peroxisome proliferator-activated receptor alpha (Homo sapiens, UniProt Q07869, T279A). The assay is described as follows: Agonist activity at wild-type human PPARalpha Thr279Ala mutant expressed in COS7 cells after 12 hrs by Dual-Glo luciferase assay. The assay is classed as cell-based, COS-7.
The target of assay [2] is T1, Peroxisome proliferator-activated receptor gamma (Homo sapiens, UniProt P37231).
T1 sequence (P37231 whole entry): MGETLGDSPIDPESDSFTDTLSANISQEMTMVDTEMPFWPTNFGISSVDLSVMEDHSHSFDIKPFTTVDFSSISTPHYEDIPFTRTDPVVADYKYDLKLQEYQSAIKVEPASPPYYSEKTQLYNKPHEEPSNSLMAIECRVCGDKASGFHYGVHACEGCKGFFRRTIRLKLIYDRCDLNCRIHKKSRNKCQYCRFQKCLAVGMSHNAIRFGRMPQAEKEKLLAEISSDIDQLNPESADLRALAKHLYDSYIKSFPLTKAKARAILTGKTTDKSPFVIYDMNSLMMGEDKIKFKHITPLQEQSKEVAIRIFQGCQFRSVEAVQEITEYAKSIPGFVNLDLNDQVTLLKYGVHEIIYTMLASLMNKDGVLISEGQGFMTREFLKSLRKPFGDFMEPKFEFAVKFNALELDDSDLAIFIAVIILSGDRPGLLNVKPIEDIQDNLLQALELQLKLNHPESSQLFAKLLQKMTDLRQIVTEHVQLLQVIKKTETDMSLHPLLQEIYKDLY
The assay is described as follows: Agonist activity at human PPARgamma LBD expressed in COS7 cells after 12 hrs by Dual-Glo luciferase assay. It is filed as cell-based, COS-7.

In assay [3] the test system is T2, Peroxisome proliferator-activated receptor alpha (Homo sapiens), Q07869 [T279A].
T2 sequence (whole entry): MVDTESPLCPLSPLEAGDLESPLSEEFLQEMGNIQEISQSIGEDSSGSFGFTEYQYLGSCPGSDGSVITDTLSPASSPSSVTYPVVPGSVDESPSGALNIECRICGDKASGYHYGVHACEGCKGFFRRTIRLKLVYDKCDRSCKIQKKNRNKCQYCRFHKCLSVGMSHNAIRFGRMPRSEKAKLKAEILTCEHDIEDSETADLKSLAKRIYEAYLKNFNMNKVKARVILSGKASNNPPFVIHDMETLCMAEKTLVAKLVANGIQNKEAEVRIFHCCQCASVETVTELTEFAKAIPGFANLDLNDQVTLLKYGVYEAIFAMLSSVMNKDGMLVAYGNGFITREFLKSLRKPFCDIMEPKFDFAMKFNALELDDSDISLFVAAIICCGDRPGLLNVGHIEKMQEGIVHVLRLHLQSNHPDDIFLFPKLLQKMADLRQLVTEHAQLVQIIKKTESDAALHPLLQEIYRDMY
The assay is described as follows: Agonist activity at wild-type human PPARalpha Thr279Ala mutant expressed in COS7 cells after 12 hrs by Dual-Glo luciferase assay relative to control. The note with it: COS-7. It is filed as cell-based.

Assay [4] concerns the target T3, Peroxisome proliferator-activated receptor alpha (Homo sapiens) (UniProt Q07869).
T3 sequence (whole entry): T2 sequence (whole entry) with A279T
Briefly: Agonist activity at wild-type human PPARalpha LBD expressed in COS7 cells after 12 hrs by Dual-Glo luciferase assay relative to control. The assay is classed as cell-based. The settings on record: COS-7.

In assay [5] the test system is COS-7. The assay is described as follows: Selectivity ratio of EC50 for human PPARgamma LBD expressed in COS7 cells to EC50 for wild-type human PPARalpha LBD expressed in COS7 cells. The assay is classed as cell-based.
Assay [6] has as its target T4, Peroxisome proliferator-activated receptor gamma (Homo sapiens) (UniProt P37231).
T4 sequence (whole entry): T1 sequence (P37231 whole entry)
The assay is described as follows: Agonist activity at human PPARgamma LBD expressed in COS7 cells after 12 hrs by Dual-Glo luciferase assay relative to pioglitazone. It is filed as cell-based. The note with it: COS-7.

In assay [7] the target is T5, Peroxisome proliferator-activated receptor alpha (Homo sapiens, UniProt Q07869).
T5 sequence (Q07869 whole entry): T2 sequence (whole entry) with A279T
The assay is described as follows: Agonist activity at wild-type human PPARalpha LBD expressed in COS7 cells after 12 hrs by Dual-Glo luciferase assay. It is filed as cell-based, COS-7.

The target in assay [8] is T3, Peroxisome proliferator-activated receptor alpha (Homo sapiens). Briefly: Agonist activity at wild-type human PPARalpha LBD expressed in COS7 cells after 12 hrs by Dual-Glo luciferase assay relative to pirinixic acid. The assay is classed as cell-based. The note with it: COS-7.

Substitutions are numbered along the chain they refer to.

Consider `CCCCCCC(Sc1nc(Cl)cc(Nc2ccc(Nc3ccccc3)cc2)n1)C(=O)O` (stereo not drawn), for which the EC50 turned out to be 100 nM in assay [1], 690 nM in assay [2] and 70 nM in assay [7]. Also, the %max in assay [3] amounted to 115%; in assay [4], 95%; in assay [6] it was 126%. For the same molecule, in assay [5], the Ratio EC50 is above 10.

With `CCCCCCC(Sc1nc(Cl)cc(Nc2cccc(C)c2C)n1)C(=O)O` (stereo not drawn), the figures for the %max in assay [8] and in assay [6] were 146% and 139%, respectively. In addition, a half-maximal response in assay [7] (EC50) required 1000 nM.

In the case of `CCCCC(Sc1nc(Cl)cc(Nc2cccc(C)c2C)n1)C(=O)O` (stereo not drawn), the %max in assay [6] worked out at 120%.

Turning to `CCCCCCC(Sc1nc(Cl)cc(Nc2ccc(Oc3ccccc3)cc2)n1)C(=O)O` (stereo not drawn), the EC50 in assay [1] worked out at 150 nM; in assay [2], 2360 nM; in assay [7], 280 nM. For the same molecule, the %max amounted to 87% in assay [3], 155% in assay [4] and 146% in assay [6].

In the case of `CCCCCCC(Sc1nc(Cl)cc(Nc2ccc(C(=O)c3ccccc3)cc2)n1)C(=O)O` (stereo not drawn), the 50% effective concentration (EC50) in assay [1] is 70 nM; in assay [2] it was 1200 nM; in assay [7], 280 nM. Further, the %max was determined as 105% in assay [3], 134% in assay [4] and 117% in assay [6].

For the molecule `O=C(O)CSc1nc(Cl)cc(Nc2ccc(Nc3ccccc3)cc2)n1`, the EC50 came out at 12400 nM in assay [2] and 12000 nM in assay [7]. Moreover, the %max in assay [4] worked out at 133%; in assay [6] it was 143%.

Take `CCCCC(Sc1nc(Cl)cc(Nc2ccc(Nc3ccccc3)cc2)n1)C(=O)O` (stereo not drawn): the EC50 is 1060 nM in assay [2] and 350 nM in assay [7]. Further, the %max in assay [4] is 137%; in assay [6], 135%.

For `Cc1cccc(Nc2cc(Cl)nc(SCC(=O)O)n2)c1C`, the %max in assay [6] was 79%.

Take `CCCCCCC(Sc1nc(Cl)cc(Nc2ccc(Cc3ccccc3)cc2)n1)C(=O)O` (stereo not drawn): the EC50 was found to be 240 nM in assay [1], 490 nM in assay [2] and 720 nM in assay [7]. In addition, the figures for the %max in assay [3], in assay [4] and in assay [6] were 83%, 127% and 158%, respectively.

One may read the EC50 as the concentration needed to bring the measured effect to its halfway point. High values mean lower potency in that assay, low ones higher potency in that assay.
